Experimental data reported in PMC8621570, “Mechanistic Studies of Antibiotic Adjuvants Reducing Kidney’s Bacterial Loads upon Systemic Monotherapy” (Pharmaceutics, 2021).

Columns and labels:
[1] = Hydrophobicity by reversed phase HPLC elution; type: physicochemical; conditions: % acetonitrile required for elution in reversed phase HPLC, C18 column; rounded to nearest whole number
[2] = system: P. aeruginosa 27853; test: Excisional skin wound infection model, topical treatment; type: in vivo, mouse; conditions: 4 h treatment, mice n = 3 per group
Procedure: Animals: All animal studies were performed using male ICR mice (25 ± 2 gr). The Technion Animal Care and Use committee approved all procedures, care, and handling of animals. Ethics approval codes: IL0800519, IL0640421, IL0550618, IL1811217.
For efficacy assessments, three infection models were used including one with topical treatment and two with systemic treatment. • Excisional skin wound infection model: mice were anesthetized by intraperitoneal administration of a mixture of ketamine 100 mg/kg and xylazine 5 mg/kg in PBS and their backs shaved with electric clippers. The following day mice were similarly anesthetized and were administrated (S.C) 0.05 mg/kg buprenorphine (for pain relief). A 5 mm diameter piece of skin was removed from the middle of the shaved back, with sterile biopsy punch resulting in a full-thickness injury. A total of 20 µL of a mid-logarithmic culture, containing 5 × 10^6 CFU P. aeruginosa 27853 were applied on the wound. Then, 15 min after inoculation, about 50 µL of hypromellose gel (prepared as described) containing OAC, antibiotic, or their combination were applied on the skin and covered with a piece of medical tape. As a control, the vehicle (drug-free gel) was similarly applied on the skin. After a treatment period of 4 h, about 8 mm diameter of skin surrounding the infected area was removed, suspended in PBS, homogenized, serially diluted 10-fold, and plated for CFU enumeration. The number of viable bacteria was determined after overnight incubation at 37 °C. The lower limit of detection was 50 CFU/wound. • Thigh infection model (TI): mice were inoculated intramuscularly with 1 × 10^6 CFU/mouse of mid-logarithmic E. coli 25922 and treated subcutaneously 1 and 3 h after inoculation. Mice were sacrificed 24 h after infection, their thighs excised, homogenized, serially diluted 10-fold, and plated for CFU enumeration. The number of viable bacteria was determined after overnight incubation at 37 °C. […] The number of viable bacteria was determined after overnight incubation at 37 °C. […]

[3] = Organ bio-distribution; type: in vivo, mouse; conditions: 3 h post single S.C 12.5 mg/kg, ICR mice, organ homogenates, LC-MS
Procedure: C14(ω5)OOc10O was subjected to preliminary pharmacokinetics (PK) analysis to determine its plasma concentrations or organ bio-distribution following S.C administration to non-neutropenic pathogen-free mice. OAC quantification was performed by LC-MS as follows: blood was drawn at various time intervals and plasma was separated by centrifugation (5000 RCF, 10 min). Organs were excised and homogenized. Then, OAC was extracted from both plasma and organ homogenates by incubation with 50% acetonitrile: 50% methanol at room temperature with shaking for 30 min, and subsequent centrifugation (5000 RCF, 10 min). Supernatants were diluted two-fold in distilled water and analyzed by LC-MS (ULC ultimate 3000 DIONEX, MS BRUKER Maxis impact). Quantification was based on standard calibration curves, prepared by spiking fresh mice plasma (for PK) or water (for organ bio-distribution) with various amounts of the tested OAC (final concentrations from 2.5 to 50 µg/mL) and subjected to an identical procedure as described above.
Figure 10 Systemic efficacy studies using mouse infection models. (a,b) Data points represent colony forming unit (CFU) counts harvested from infected mice (8 and 10 mice per group, respectively). […]

Structure (SMILES): CCCCC=CCCCCCCCC(=O)N[C@@H](CCCN)C(=O)N[C@@H](CCCN)C(=O)NCCCCCCCCCC(=O)N[C@@H](CCCN)C(N)=O [C14(ω5)OOc10O]
- H, hydrophobicity [1]: 50%
- Reduction of CFU count ([2]; hypromellose gel 0.2% (w/v)): 0.5 log10 units
- Reduction of CFU count ([2]; hypromellose gel 1% (w/v)): 1.9 log10 units
- Concentration in liver and kidneys relative to lymph nodes, thighs, bladder, brain or spleen [3]: at least 3 times
